Patent US20060100255A1, “Substituted indolealkanoic acids derivative and formulations containing same for use in the treatment of diabetic complications” (priority 2002, published 2006)

What was measured:
[1] = tested on: sorbitol accumulation in the sciatic nerve; experiment: sorbitol accumulation in sciatic nerve of streptozotocin-induced diabetic rats, 15 day study; type: in vivo, rat
Text: (§1) The test methods employed to determine the efficacy are essentially those of Mylari, et al., J. Med. Chem. 34: 108, 1991.

Tissue Sorbitol Levels = experiment: tissue sorbitol levels in the STZ induced diabetic rat, 30 and 90 day studies; type: in vivo
Text: as §1
[(4,5,7-trifluoro-1,3-benzothiazol-2-yl)methyl]-1H-indol-1-yl}acetic acid monohydrate in reducing Tissue Sorbitol Levels in the STZ Induced Diabetic Rat

[2] = tested on: sorbitol levels in the sciatic nerve and lens; experiment: 8-day STZ diabetic rat model, sorbitol lowering versus known ARIs; type: in vivo; conditions: 10 mg/kg/day
Text: 3-[(4,5,7-trifluoro-1,3-benzothiazol-2-yl)methyl]-1H-indol-1-yl}acetic acid monohydrate is compared to the known […] inhibitors (ARI) zenarestat and zopolrestat in an 8-day STZ diabetic rat model.

[3] = tested on: nerve conduction velocity (NCV) in the sciatic nerve; experiment: 4-week study in STZ-diabetic rats, loss of nerve conduction velocity; type: in vivo, rat
[4] = tested on: nerve conduction velocity (NCV) in the sciatic nerve; experiment: 3 month study in STZ-diabetic rats, nerve conduction velocity; type: in vivo, rat; conditions: 3 months treatment
NCV = experiment: comparison with zenarestat and zopolrestat, inhibition of decline in NCV; type: in vivo
Text: 3-[(4,5,7-trifluoro-1,3-benzothiazol-2-yl)methyl]-1H-indol-1-yl}acetic acid monohydrate compares very favorably with the ability of zenarestat and zopolrestat to inhibit the decline in NCV. […]

O=C(O)Cn1cc(Cc2nc3c(F)c(F)cc(F)c3s2)c2ccccc21 [Example 1, 3-(4,5,7-Trifluorobenzothiazol-2-yl)methyl-indole-N-acetic Acid, monohydrate]
ED50, sorbitol accumulation in rat sciatic nerve ([1]; 15 day study): 1.3 mg/kg/day
inhibition of sorbitol accumulation, rat sciatic nerve ([1]; 15 day study, 4.8 mg/kg/day): 100%
changes in fructose ([1]; STZ diabetic rat tissues): levels were reduced
changes in mysinositol ([1]; STZ diabetic rat tissues): levels were increased
% Sorbitol Reduction, Lens (Tissue Sorbitol Levels; 30 days, 5 mg/kg/day): 88%
% Sorbitol Reduction, Sciatic Nerve (Tissue Sorbitol Levels; 30 days, 5 mg/kg/day): 100%
% Sorbitol Reduction, Lens (Tissue Sorbitol Levels; 30 days, 10 mg/kg/day): 90%
% Sorbitol Reduction, Sciatic Nerve (Tissue Sorbitol Levels; 30 days, 10 mg/kg/day): 100%
% Sorbitol Reduction, Lens (Tissue Sorbitol Levels; 30 days, 25 mg/kg/day): 95%
% Sorbitol Reduction, Sciatic Nerve (Tissue Sorbitol Levels; 30 days, 25 mg/kg/day): 100%
% Sorbitol Reduction, Kidney Cortex (Tissue Sorbitol Levels; 90 days, 5 mg/kg/day): 33%
% Sorbitol Reduction, Kidney Medulla (Tissue Sorbitol Levels; 90 days, 5 mg/kg/day): 36%
% Sorbitol Reduction, Retina (Tissue Sorbitol Levels; 90 days, 5 mg/kg/day): 89%
% Sorbitol Reduction, Sciatic Nerve (Tissue Sorbitol Levels; 90 days, 5 mg/kg/day): 100%
% Sorbitol Reduction, Kidney Cortex (Tissue Sorbitol Levels; 90 days, 10 mg/kg/day): 25%
% Sorbitol Reduction, Kidney Medulla (Tissue Sorbitol Levels; 90 days, 10 mg/kg/day): 47%
% Sorbitol Reduction, Retina (Tissue Sorbitol Levels; 90 days, 10 mg/kg/day): 99%
% Sorbitol Reduction, Sciatic Nerve (Tissue Sorbitol Levels; 90 days, 10 mg/kg/day): 100%
% Sorbitol Reduction, Kidney Cortex (Tissue Sorbitol Levels; 90 days, 25 mg/kg/day): 45%
% Sorbitol Reduction, Kidney Medulla (Tissue Sorbitol Levels; 90 days, 25 mg/kg/day): 58%
% Sorbitol Reduction, Retina (Tissue Sorbitol Levels; 90 days, 25 mg/kg/day): 96%
% Sorbitol Reduction, Sciatic Nerve (Tissue Sorbitol Levels; 90 days, 25 mg/kg/day): 100%
Lens sorbitol lowering [2]: 25-42%
Sciatic Nerve sorbitol lowering [2]: 100%
inhibition of decline of nerve conduction velocity (NCV) in the sciatic nerve ([3]; 5 mg/kg/day): 14%
inhibition of decline of nerve conduction velocity (NCV) in the sciatic nerve ([3]; 10 mg/kg/day): 41%
inhibition of decline of nerve conduction velocity (NCV) in the sciatic nerve ([3]; 25 mg/kg/day): 79%
Improvement in NCV ([4]; 5 mg/kg/day): 50%
Improvement in NCV ([4]; 10 mg/kg/day): 68%
Improvement in NCV ([4]; 25 mg/kg/day): 105%
Improvement in NCV (NCV; 25 mg/kg/day, study 4 weeks, treatment 3 weeks): 79%

O=C(O)Cn1c(=O)n(Cc2ccc(Br)cc2F)c(=O)c2ccc(Cl)cc21 [zenarestat]
Lens sorbitol lowering [2]: 0%
Sciatic Nerve sorbitol lowering [2]: 52%
Improvement in NCV (NCV; 32 mg/kg/day, study 2 weeks, treatment 2 weeks): 48%

O=C(O)Cc1nn(Cc2nc3cc(C(F)(F)F)ccc3s2)c(=O)c2ccccc12 [zopolrestat]
Lens sorbitol lowering [2]: 0%
Sciatic Nerve sorbitol lowering [2]: 71%
Improvement in NCV (NCV; 25 mg/kg/day, study 4 weeks, treatment 4 weeks): 43%
